{
  "source": "ChEMBL document CHEMBL1154074",
  "about": "“3D-QSAR with the aid of pharmacophore search and docking-based alignments for farnesyltransferase inhibitors” (Eur J Med Chem, 2009)",
  "data": [
    {"assay": "Inhibition of FTase", "values": [
      {"smiles": "N#Cc1ccc(COCc2cncn2Cc2ccc(C#N)cc2-c2cccc3ccccc23)cc1", "pIC50": 9.02},
      {"smiles": "N#Cc1ccc(Cn2cncc2COCc2ccc(C#N)cc2-c2cccc(OC(F)(F)F)c2)cc1", "pIC50": 9.31},
      {"smiles": "Cc1ccc(-c2cc(C#N)ccc2COCc2cncn2Cc2ccc(C#N)cc2)cc1C", "pIC50": 9.22},
      {"smiles": "N#Cc1ccc(Cn2cncc2COCc2ccc(C#N)cc2-c2ccc(C(F)(F)F)cc2)cc1", "pIC50": 8.37},
      {"smiles": "N#Cc1ccc(Cn2cncc2COc2ccc(Cl)cc2-c2cccc(Cl)c2)cc1", "pIC50": 8.4},
      {"smiles": "N#Cc1ccc(COCc2cncn2Cc2ccc(Cl)cc2)c(-c2ccc3c(c2)OCO3)c1", "pIC50": 8.08},
      {"smiles": "CCOc1cccc(-c2cc(C#N)ccc2COCc2cncn2Cc2ccc(C#N)nc2)c1", "pIC50": 9.24},
      {"smiles": "N#Cc1ccc(Cn2cncc2CNCc2ccc(C#N)c(-c3cccc4ccccc34)c2)cc1", "pIC50": 8.19},
      {"smiles": "CC(C)(C)c1ccc(-c2cc(C#N)ccc2COCc2cncn2Cc2ccc(C#N)cc2)cc1", "pIC50": 9.36},
      {"smiles": "N#Cc1ccc(COCc2cncn2Cc2ccc(C#N)nc2)c(-c2ccc3c(c2)OCO3)c1", "pIC50": 8.52},
      {"smiles": "N#Cc1ccc(Cn2cncc2COCc2ccc(C#N)cc2-c2ccc3ccccc3c2)cc1", "pIC50": 9.04},
      {"smiles": "CCOc1ccc(-c2cc(C#N)ccc2COCc2cncn2Cc2ccc(C#N)cc2)cc1", "pIC50": 8.9},
      {"smiles": "N#Cc1ccc(OCc2cncn2Cc2ccc(C#N)c(-c3cccc4ccccc34)c2)nc1", "pIC50": 9.05},
      {"smiles": "COc1ccc(-c2cc(C#N)ccc2COCc2cncn2Cc2ccc(C#N)cc2)cn1", "pIC50": 8.12},
      {"smiles": "N#Cc1ccc(COCc2cncn2Cc2ccc(C#N)nc2)c(-c2cccc(Cl)c2)c1", "pIC50": 8.52},
      {"smiles": "COc1cccc(-c2cc(C#N)ccc2COCc2cncn2Cc2ccc(C#N)cn2)c1", "pIC50": 8.36},
      {"smiles": "N#Cc1ccc(OCc2cncn2Cc2ccc(C#N)c(-c3cccc4ccccc34)c2)cc1", "pIC50": 9.49},
      {"smiles": "N#Cc1ccc(Cn2cncc2COCc2ccc(C#N)c(-c3cccc4ccccc34)c2)cc1", "pIC50": 8.32},
      {"smiles": "COc1cccc(-c2cc(C#N)ccc2COCc2cncn2Cc2ccc(C#N)nc2)c1", "pIC50": 8.82},
      {"smiles": "N#Cc1ccc(Cn2cncc2COCc2ccc(C#N)cc2-c2cccc(Cl)c2)cc1", "pIC50": 9.43},
      {"smiles": "N#Cc1ccc(Cn2cncc2COCc2ccc(Cl)cc2-c2cccc(Cl)c2)cc1", "pIC50": 9.21},
      {"smiles": "N#Cc1ccc(Cn2cncc2COCc2ccc(C#N)cc2-c2ccc3c(c2)OCO3)nc1", "pIC50": 8.33},
      {"smiles": "N#Cc1ccc(Cn2cncc2COc2ccc(C#N)c(-c3cccc4ccccc34)c2)cc1", "pIC50": 9.42},
      {"smiles": "CS(=O)(=O)c1ccc(Cn2cncc2COCc2ccc(C#N)cc2-c2cccc(Cl)c2)cc1", "pIC50": 7.02},
      {"smiles": "N#Cc1ccc(COCc2cncn2Cc2ccc(C#N)cc2-c2cccc(Cl)c2)c(-c2cccc(Cl)c2)c1", "pIC50": 8},
      {"smiles": "N#Cc1ccc(Cn2cncc2COCc2ccc(C#N)cc2-c2ccc(Cl)c(Cl)c2)cc1", "pIC50": 9.43},
      {"smiles": "N#Cc1ccc(Cn2cncc2COCc2cnc(C#N)cc2-c2cccc(Cl)c2)cc1", "pIC50": 8.37},
      {"smiles": "N#Cc1cn(Cc2cncn2Cc2ccc3c(c2)OCO3)cc1-c1cccc2ccccc12", "pIC50": 8.21},
      {"smiles": "Cn1c(=O)cc(-c2cccc(Cl)c2)c2cc(C(N)c3cncn3Cc3ccc(C#N)cc3)ccc21", "note": "(centres undefined)", "pIC50": 8.42},
      {"smiles": "Cn1c(=O)cc(-c2cccc(Cl)c2)c2cc(C(=O)c3cncn3Cc3ccc(C#N)cc3)ccc21", "pIC50": 7.54},
      {"smiles": "Cn1c(=O)cc(-c2cccc(Cl)c2)c2cc(COCc3cncn3Cc3ccc(C#N)cc3)ccc21", "pIC50": 7.05},
      {"smiles": "N#Cc1ccc(Cn2cncc2COCc2ccc(C#N)cc2-c2cccc(Cl)c2)nc1", "pIC50": 8.77},
      {"smiles": "N#Cc1ccc(Cn2cncc2COCc2ccc(C#N)cc2-c2cccc3ccccc23)cc1", "pIC50": 8.89},
      {"smiles": "CCOc1cccc(-c2cc(C#N)ccc2COCc2cncn2Cc2ccc(Cl)cc2)c1", "pIC50": 8.85},
      {"smiles": "N#Cc1ccc(Cn2cncc2COCc2ccc(C#N)cc2-c2ccc(OC(F)(F)F)cc2)cc1", "pIC50": 9.19},
      {"smiles": "N#Cc1ccc(Cn2cncc2COCc2ccc(C#N)cc2-c2cccc3c2OCO3)cc1", "pIC50": 9.09},
      {"smiles": "N#Cc1ccc(COCc2cncn2Cc2ccc(C#N)cc2-c2cccc3ccccc23)c(-c2ccc3c(c2)OCO3)c1", "pIC50": 8.17},
      {"smiles": "CC(=O)c1ccc(-c2cc(C#N)ccc2COCc2cncn2Cc2ccc(C#N)cc2)cc1", "pIC50": 8.89},
      {"smiles": "Cn1c(=O)cc(-c2cccc(Cl)c2)c2cc(C(NC=O)c3cncn3Cc3ccc(C#N)cc3)ccc21", "note": "(centres undefined)", "pIC50": 8.68},
      {"smiles": "COc1cccc(-c2cc(C#N)ccc2COCc2cncn2Cc2ccc(Cl)cc2)c1", "pIC50": 8.66},
      {"smiles": "Cn1c(=O)cc(-c2cccc(Cl)c2)c2cc(C(O)c3cncn3Cc3ccc(C#N)cc3)ccc21", "note": "(centres undefined)", "pIC50": 7.33},
      {"smiles": "N#Cc1ccc(Cn2cncc2Cn2cc(C#N)c(-c3cccc4ccccc34)c2)cc1", "pIC50": 9.24},
      {"smiles": "CC(=O)Nc1cccc(-c2cc(C#N)ccc2COCc2cncn2Cc2ccc(C#N)cc2)c1", "pIC50": 7.89},
      {"smiles": "N#Cc1ccc(Cn2cncc2Cn2ccc3c(C#N)c(-c4cccc5ccccc45)ccc32)cc1", "pIC50": 9.82}
    ]}
  ]
}
